Measured values as given in patent US10898481B2 (priority 2018, dated 2021).

Key:
[1] = molecular target: hA2b/CHO (Homo sapiens (Human), UniProt P29275); experiment: cAMP inhibition assay in hA2b/CHO cells, 10 μM adenosine; assay type: cell-based; conditions: read-out: cAMP & FLIPR IC50 (nM) hA2b;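 further: cells exposed to compound 30 min at 37 °C, then stimulated with adenosine a further 30 min, cAMP read after 60 min at room temperature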
Protocol: (§1) hA2a/CHO, hA2b/CHO, hA3/CHO and mA2a/CHO (Genscript) were plated at 5×10^3 cells/well into 384-well polystyrene plates at the day of experiment. Compounds were pre-incubated with cells for 30 min at 37° C., 5% CO2. Then 10 μM adenosine was added to the cells and incubated for 30 min at 37° C., 5% CO2. Detection reagent (CISBIO) was added and the plates were incubated for 60 min at room temperature. The signal was captured by Envision.

[2] = molecular target: mA2a/CHO (Mus musculus (Mouse), UniProt Q60613); experiment: cAMP inhibition assay in mA2a/CHO cells, 10 μM adenosine; assay type: cell-based; conditions: read-out: cAMP & FLIPR IC50 (nM) mA2a;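 further: compounds preincubated 30 min at 37 °C before the adenosine challenge, then 30 min further stimulation, readout after 60 min detection reagent incubation at room temperature in 384-well plates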
Protocol: as §1

[3] = molecular target: hADORA1/CHO (hA1 expressing) cells (Homo sapiens (Human), UniProt P30542); experiment: cell-based; conditions: FLIPR inhibition, 10 μM adenosine, read-out: cAMP & FLIPR IC50 (nM) hA1
[4] = molecular target: hA2a/CHO (Homo sapiens (Human), UniProt P29274); experiment: cAMP inhibition assay in hA2a/CHO cells, 10 μM adenosine; assay type: cell-based; conditions: read-out: cAMP & FLIPR IC50 (nM) hA2a;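 further: compounds added to cells 30 min ahead of adenosine, then a further 30 min at 37 °C with adenosine before cAMP detection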
hA2a/CHO, sequence (P29274 whole entry): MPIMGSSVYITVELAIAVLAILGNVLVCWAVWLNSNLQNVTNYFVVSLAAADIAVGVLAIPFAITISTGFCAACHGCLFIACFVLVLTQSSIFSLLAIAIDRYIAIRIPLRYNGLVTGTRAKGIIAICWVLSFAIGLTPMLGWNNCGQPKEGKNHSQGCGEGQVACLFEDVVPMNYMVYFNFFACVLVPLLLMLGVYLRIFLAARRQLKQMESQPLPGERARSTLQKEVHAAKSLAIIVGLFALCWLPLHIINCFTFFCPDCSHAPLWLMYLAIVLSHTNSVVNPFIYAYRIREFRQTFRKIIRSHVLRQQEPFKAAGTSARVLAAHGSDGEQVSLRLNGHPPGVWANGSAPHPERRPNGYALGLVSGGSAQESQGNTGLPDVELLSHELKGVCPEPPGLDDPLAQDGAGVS
Protocol: as §1

hA2b/CHO, sequence (P29275 whole entry): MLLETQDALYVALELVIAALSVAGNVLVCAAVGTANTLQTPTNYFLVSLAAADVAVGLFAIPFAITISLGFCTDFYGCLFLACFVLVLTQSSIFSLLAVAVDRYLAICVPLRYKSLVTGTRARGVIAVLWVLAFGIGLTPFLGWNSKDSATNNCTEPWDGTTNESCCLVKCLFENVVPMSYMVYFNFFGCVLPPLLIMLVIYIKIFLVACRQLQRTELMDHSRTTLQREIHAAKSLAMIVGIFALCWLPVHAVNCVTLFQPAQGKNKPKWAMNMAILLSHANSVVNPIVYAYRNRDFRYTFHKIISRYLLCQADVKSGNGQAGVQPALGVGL
mA2a/CHO, sequence (Q60613 whole entry): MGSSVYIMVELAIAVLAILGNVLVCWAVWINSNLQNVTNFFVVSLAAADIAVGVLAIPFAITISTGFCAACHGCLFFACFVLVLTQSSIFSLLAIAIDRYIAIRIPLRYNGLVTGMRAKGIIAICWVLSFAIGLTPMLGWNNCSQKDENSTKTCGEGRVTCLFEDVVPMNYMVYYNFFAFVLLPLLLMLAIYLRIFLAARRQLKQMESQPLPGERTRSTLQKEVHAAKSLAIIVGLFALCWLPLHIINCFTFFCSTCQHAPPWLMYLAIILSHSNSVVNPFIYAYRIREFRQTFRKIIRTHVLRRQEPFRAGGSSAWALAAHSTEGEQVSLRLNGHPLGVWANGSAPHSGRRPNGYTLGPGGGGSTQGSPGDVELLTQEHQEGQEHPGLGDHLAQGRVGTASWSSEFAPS
hADORA1/CHO (hA1 expressing) cells, sequence (P30542 whole entry): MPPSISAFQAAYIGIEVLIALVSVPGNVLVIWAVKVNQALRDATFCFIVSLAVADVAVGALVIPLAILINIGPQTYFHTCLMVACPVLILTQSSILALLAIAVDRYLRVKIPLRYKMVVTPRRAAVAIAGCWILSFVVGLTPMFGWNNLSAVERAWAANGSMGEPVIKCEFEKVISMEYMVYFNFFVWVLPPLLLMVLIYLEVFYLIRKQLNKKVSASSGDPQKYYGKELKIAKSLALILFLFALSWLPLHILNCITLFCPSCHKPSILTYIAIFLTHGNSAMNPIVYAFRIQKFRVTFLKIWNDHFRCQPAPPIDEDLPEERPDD

CCc1cnn2ccc(-c3nc(C(=O)NC[C@H]4CCCN4C)c(N)nc3-c3ncco3)cc12 [Example 128, (R)-3-amino-6-(3-ethylpyrazolo[1,5-a]pyridin-5-yl)-N-((1-methylpyrrolidin-2-yl)methyl)-5-(oxazol-2-yl)pyrazine-2-carboxamide]
IC50 [1]: ≥ 10000 nM | IC50 [2]: 410 nM | IC50 [3]: 10000 nM | IC50 [4]: 63 nM

CCc1cnn2ccc(-c3nc(C(=O)NC[C@@H]4CCCN4C)c(N)nc3-c3ncco3)cc12 [Example 129, (S)-3-amino-6-(3-ethylpyrazolo[1,5-a]pyridin-5-yl)-N-((1-methylpyrrolidin-2-yl)methyl)-5-(oxazol-2-yl)pyrazine-2-carboxamide]
IC50 [1]: ≥ 10000 nM | IC50 [2]: 944 nM | IC50 [3]: 10000 nM | IC50 [4]: 140 nM

CN1CCC[C@H]1CNC(=O)c1nc(-c2ccc3ncn(C)c3c2)c(-n2nccn2)nc1N [Example 130, 3-amino-6-(1-methyl-1H-1,3-benzodiazol-6-yl)-N-[[(2S)-1-methylpyrrolidin-2-yl]methyl]-5-(2H-1,2,3-triazol-2-yl)pyrazine-2-carboxamide]
IC50 [1]: ≥ 10000 nM | IC50 [2]: 2800 nM | IC50 [3]: 10000 nM | IC50 [4]: 295 nM

CN1CCC[C@@H]1CNC(=O)c1nc(-c2ccc3ncn(C)c3c2)c(-n2nccn2)nc1N [Example 131, (R)-3-amino-6-(1-methyl-1H-benzo[d]imidazol-6-yl)-N-((1-methylpyrrolidin-2-yl)methyl)-5-(2H-1,2,3-triazol-2-yl)pyrazine-2-carboxamide]
IC50 [1]: ≥ 10000 nM | IC50 [2]: 2700 nM | IC50 [3]: 10000 nM | IC50 [4]: 332 nM

CCNC(=O)c1nc(-c2ccc3ncc(C)n3c2)c(-c2ncco2)nc1N [Example 132, 3-amino-N-ethyl-6-(3-methylimidazo [1,2-a]pyridin-6-yl)-5-(oxazol-2-yl) pyrazine-2-carboxamide]
IC50 [1]: 258 nM | IC50 [2]: 65 nM | IC50 [3]: 10000 nM | IC50 [4]: 13 nM

Cc1cnc2ccc(-c3nc(C(=O)NCCC#N)c(N)nc3-c3ncco3)cn12 [Example 142, 3-amino-N-(2-cyanoethyl)-6-(3-methyl-imidazo[1,2-a]pyridin-6-yl)-5-(oxazol-2-yl)pyrazine-2-carboxamide]
IC50 [1]: 319 nM | IC50 [2]: 73 nM | IC50 [3]: 10000 nM | IC50 [4]: 10 nM

Cc1cnc2ccc(-c3nc(C(=O)NCCC(=O)N(C)C)c(N)nc3-c3ncco3)cn12 [Example 143, 3-amino-N-(3-(dimethylamino)-3-oxopropyl)-6-(3-methylimidazo[1,2-a]pyridin-6-yl)-5-(oxazol-2-yl)pyrazine-2-carboxamide]
IC50 [1]: 162 nM | IC50 [2]: 12 nM | IC50 [3]: 180 nM | IC50 [4]: 1.7 nM

Cc1cnc2ccc(-c3nc(C(=O)N[C@@H]4CCN(C)C4)c(N)nc3-c3ccc(F)cc3)cn12 [Example 144, (R)-3-amino-5-(4-fluorophenyl)-6-(3-methylimidazo[1,2-a]pyridin-6-yl)-N-(1-methylpyrrolidin-3-yl)pyrazine-2-carboxamide]
IC50 [1]: 1410 nM | IC50 [2]: 61 nM | IC50 [3]: 10000 nM | IC50 [4]: 4.6 nM

Cc1cnc2ccc(-c3nc(C(=O)NC[C@@H](C)O)c(N)nc3-c3ncco3)cn12 [Example 145, (R)-3-amino-N-(2-hydroxypropyl)-6-(3-methylimidazo[1,2-a]pyridin-6-yl)-5-(oxazol-2-yl)pyrazine-2-carboxamide]
IC50 [1]: 789 nM | IC50 [2]: 205 nM | IC50 [3]: 10000 nM | IC50 [4]: 32 nM

Cc1cnc2ccc(-c3nc(C(=O)NC[C@H](C)O)c(N)nc3-c3ncco3)cn12 [Example 146, (S)-3-amino-N-(2-hydroxypropyl)-6-(3-methylimidazo[1,2-a]pyridin-6-yl)-5-(oxazol-2-yl)pyrazine-2-carboxamide]
IC50 [1]: 256 nM | IC50 [2]: 101 nM | IC50 [3]: 10000 nM | IC50 [4]: 8.5 nM

Cc1cnc2ccc(-c3nc(C(=O)NCCOC(F)(F)F)c(N)nc3-c3ncco3)cn12 [Example 148, 3-amino-6-(3-methylimidazo[1,2-a]pyridin-6-yl)-5-(oxazol-2-yl)-N-(2-(trifluoromethoxy)ethyl)pyrazine-2-carboxamide]
IC50 [1]: 99 nM | IC50 [2]: 1.1 nM | IC50 [3]: 69 nM | IC50 [4]: 0.5 nM

COCCCNC(=O)c1nc(-c2ccc3ncc(C)n3c2)c(-c2ncco2)nc1N [Example 149, 3-amino-N-(3-methoxypropyl)-6-[3-methylimidazo[1,2-a]pyridin-6-yl]-5-(1,3-oxazol-2-yl)pyrazine-2-carboxamide]
IC50 [1]: 85 nM | IC50 [2]: 7.8 nM | IC50 [3]: 1560 nM | IC50 [4]: 1.5 nM

Cc1cnc2ccc(-c3nc(C(=O)NCCS(C)(=O)=O)c(N)nc3-c3ccc(F)cc3)cn12 [Example 150, 3-amino-5-(4-fluorophenyl)-6-(3-methylimidazo[1,2-a]pyridin-6-yl)-N-(2-(methylsulfonyl)ethyl)pyrazine-2-carboxamide]
IC50 [1]: 108 nM | IC50 [2]: 6.5 nM | IC50 [3]: 26 nM | IC50 [4]: 3.4 nM

CO[C@H]1C[C@H](NC(=O)c2nc(-c3ccc4ncc(C)n4c3)c(-c3ncco3)nc2N)C1 [Example 151, 3-amino-N-((1r,3r)-3-methoxycyclobutyl)-6-(3-methylimidazo [1,2-a]pyridin-6-yl)-5-(oxazol-2-yl) pyrazine-2-carboxamide]
IC50 [1]: 193 nM | IC50 [2]: 12 nM | IC50 [3]: 10000 nM | IC50 [4]: 0.8 nM

CO[C@H]1C[C@@H](NC(=O)c2nc(-c3ccc4ncc(C)n4c3)c(-c3ncco3)nc2N)C1 [Example 152, 3-amino-N-((1s,3s)-3-methoxycyclobutyl)-6-(3-methylimidazo [1,2-a]pyridin-6-yl)-5-(oxazol-2-yl)pyrazine-2-carboxamide]
IC50 [1]: 369 nM | IC50 [2]: 43 nM | IC50 [3]: 10000 nM | IC50 [4]: 5.1 nM

Cc1cnc2ccc(-c3nc(C(=O)NCCN(C)C)c(N)nc3-c3ncco3)cn12 [Example 153, 3-amino-N-(2-(dimethylamino)ethyl)-6-(3-methylimidazo[1,2-a]pyridin-6-yl)-5-(oxazol-2-yl)pyrazine-2-carboxamide]
IC50 [1]: 592 nM | IC50 [2]: 120 nM | IC50 [3]: 10000 nM | IC50 [4]: 19 nM

Cc1cnc2ccc(-c3nc(C(=O)NCC4(N(C)C)CC4)c(N)nc3-c3ccc(F)cc3)cn12 [Example 154, 3-amino-N-[[1-(dimethylamino)cyclopropyl]methyl]-5-(4-fluorophenyl)-6-[3-methylimidazo[1,2-a]pyridin-6-yl]pyrazine-2-carboxamide]
IC50 [1]: 1150 nM | IC50 [2]: 121 nM | IC50 [3]: 10000 nM | IC50 [4]: 11 nM

Cc1cnc2ccc(-c3nc(C(=O)NCC4CC4)c(N)nc3-c3ncco3)cn12 [Example 155, 3-amino-N-(cyclopropylmethyl)-6-(3-methylimidazo[1,2-a]pyridin-6-yl)-5-(oxazol-2-yl)pyrazine-2-carboxamide]
IC50 [1]: 188 nM | IC50 [2]: 12 nM | IC50 [3]: 3650 nM | IC50 [4]: 0.6 nM

Cc1cnc2ccc(-c3nc(CNC(=O)[C@@H]4CCCN4C)c(N)nc3-c3ccc(F)cc3)cn12 [Example 156, (2S)—N-[[3-amino-5-(4-fluorophenyl)-6-[3-methylimidazo[1,2-a]pyridin-6-yl]pyrazin-2-yl]methyl]-1-methylpyrrolidine-2-carboxamide]
IC50 [1]: 1200 nM | IC50 [2]: 41 nM | IC50 [3]: 83 nM | IC50 [4]: 4.4 nM

Cc1cnc2ccc(-c3nc(C(=O)NCCn4cccn4)c(N)nc3-c3ncco3)cn12 [Example 158, N-(2-(1H-pyrazol-1-yl)ethyl)-3-amino-6-(3-methylimidazo[1,2-a]pyridin-6-yl)-5-(oxazol-2-yl)pyrazine-2-carboxamide]
IC50 [1]: 167 nM | IC50 [2]: 3.46 nM | IC50 [3]: 756 nM | IC50 [4]: 1.27 nM

COC[C@@H](C)NC(=O)c1nc(-c2ccc3ncc(C)n3c2)c(-c2ncco2)nc1N [Example 159, (R)-3-amino-N-(1-methoxypropan-2-yl)-6-(3-methylimidazo[1,2-a]pyridin-6-yl)-5-(oxazol-2-yl)pyrazine-2-carboxamide]
IC50 [1]: 1640 nM | IC50 [2]: 13.2 nM | IC50 [3]: > 10000 nM | IC50 [4]: 5.31 nM

Cc1cnc2ccc(-c3nc(C(=O)NC[C@@H]4CC(F)(F)CN4C)c(N)nc3-c3ncco3)cn12 [Example 161, (S)-3-amino-N-((4,4-difluoro-1-methylpyrrolidin-2-yl)methyl)-6-(3-methylimidazo[1,2-a]pyridin-6-yl)-5-(oxazol-2-yl)pyrazine-2-carboxamide]
IC50 [1]: 98 nM | IC50 [2]: 0.8 nM | IC50 [3]: 34 nM | IC50 [4]: 0.95 nM

Cc1cnc2ccc(-c3nc(C(=O)NC[C@H]4CC(F)(F)CN4C)c(N)nc3-c3ncco3)cn12 [Example 162, (R)-3-amino-N-((4,4-difluoro-1-methylpyrrolidin-2-yl)methyl)-6-(3-methylimidazo[1,2-a]pyridin-6-yl)-5-(oxazol-2-yl)pyrazine-2-carboxamide]
IC50 [1]: 147 nM | IC50 [2]: 8.12 nM | IC50 [3]: 794 nM | IC50 [4]: 0.71 nM

Cc1cnc2ccc(-c3nc(C(=O)NCc4cccc(N5CC6(CCN6C)C5)n4)c(N)nc3-c3ncco3)cn12 [Example 171, 3-amino-N-[(6-[1-methyl-1,6-diazaspiro[3.3]heptan-6-yl]pyridin-2-yl)methyl]-6-[3-methylimidazo[1,2-a]pyridin-6-yl]-5-(1,3-oxazol-2-yl)pyrazine-2-carboxamide]
IC50 [1]: 228 nM | IC50 [2]: 15 nM | IC50 [3]: 589 nM | IC50 [4]: 1 nM

Cc1cnc2ccc(-c3nc(C(=O)N[C@H]4CCN(C)C4)c(N)nc3-c3ccc(F)cc3)cn12 [Example 200-2, (S)-3-amino-5-(4-fluorophenyl)-6-(3-methylimidazo[1,2-a]pyridin-6-yl)-N-(1-methylpyrrolidin-3-yl)pyrazine-2-carboxamide]
IC50 [1]: 3540 nM | IC50 [2]: 169 nM | IC50 [3]: > 10000 nM | IC50 [4]: 12 nM
